One assay deals with T1, LPAR1 (Homo sapiens, UniProt Q92633).
T1 construct: host or cells: U2OS
In words: LPAR1 FLIPR Assay. The assay is classed as cell-based. Conditions: U2OS cells stably expressing LPAR1, LPA (EC80), Calcium 6 FLIPR dye; for Emax: read-out: Maximum Inhibition. How it is done: U2OS cells stably expressing LPAR1 (Life Technologies #K1519A) were plated at 12000 cells/well in growth medium (McCoy's 5A medium(Life Technologies 16600-082)) with 10% dFBS (Life Technologies 26400-036), 0.1 mM non-essential amino acids, 25 mM HEPES, 1 mM sodium pyruvate, 1% penicillin/streptomycin, 50 μg/mL hygromycin, and 100 μg/mL Geneticin® in black-walled, clear-bottom 384-well plates (Corning #3683) and incubated in humidified 5% CO2 at 37° C. overnight. On the day of the assay, medium was removed and 30 μL of 5% Calcium 6 FLIPR dye in assay buffer-HBSS (Life Technologies #14025) containing 20 mM HEPES (Life Technologies #15630-080) was added to the cells. Cells were incubated at 37° C. in the dark for 2 hours. Compounds were 3-fold serial diluted from 10 mM for 11-points using dimethyl sulfoxide. 1 μL of compound in DMSO was diluted in 82.3 μL assay buffer immediately before the assay. Using a FLIPR® TETRA® system, 15 μL of the (4×) compound solutions were first added to the cells, then 15 μL of LPA (EC80) diluted in of assay buffer supplemented with 0.1% BSA was added 3 minutes later to activate the receptor. Changes in fluorescence were measured at wavelengths of 515-575 nm over the course of the experimental run. IC50 values were calculated from curve fits of the ratio data using a four-parameter logistic Hill equation (Assay Explorer 3.3 Client).

In assay [1] the test system is LPA-induced MCP-1 in NRK-49F cells. In words: LPA-induced MCP-1 AlphaLISA assay. Conditions: Rattus norvegicus, final LPA 10 μM, 7 hours; for Emax: read-out: Maximum Inhibition. The assay is classed as cell-based. How it is done: Two days prior to the experiment, NRK-49F cells were plated at 8,000 cells/well in 100 μL of growth medium [DMEM (Life Technologies #11995) with 5% dFBS (Life Technologies #30067-334), 100 units/mL penicillin/streptomycin (Life Technologies #15140122)] in 96-well clear flat bottom polystyrene TC-treated microplate (Corning® #3599) and incubated in humidified 10% CO2 at 37° C. One day prior to the experiment, the cell medium was removed and serum free medium [100 μL/well, DMEM (Life Technologies #11995) with 0.1% fatty acid free BSA (Sigma #A6003)] was added with continued incubation in humidified 10% CO2 at 37° C. overnight. On the day of the assay, test compounds were 1:3 serially diluted in 100% DMSO using a BioTek Precision™ system and then transferred (equivalent volume of DMSO as controls) to a plate in serum free medium [DMEM with 0.1% fatty acid free BSA] using a Biomek® NX workstation to give a 2× compound solution. The cell culture medium was removed, and cells were pre-treated with 50 μL/well of 2× compound in serum free medium [DMEM with 0.1% fatty acid free BSA] at 37° C. for 30 minutes. Following the incubation, 50 μL/well of 20 μM LPA diluted in serum free medium [DMEM with 0.1% fatty acid free BSA] was added to the cells. Serum free medium [DMEM with 0.1% fatty acid free BSA] was used as substitution for low control wells while 20 µM LPA was added to high control wells and test compound wells. 200 µM LPA was added to EC100 wells. Final DMSO concentration was 1% in every well. Final LPA concentration in test compound wells and high control wells was 10 μM. […] After the incubation, cell supernatant was transferred to a new 96 well polypropylene plate (Greiner #651201) where it was sealed and stored at −80° C. On the detection day, 5 μL of thawed cell supernatant was transferred to a new white opaque 384-well microplate (Perkin Elmer #6007299). An AlphaLISA® mouse/rat CCL2/MCP1, Immunoassay Research kit (PerkinElmer #AL509F) was used. A mixture (20 μL/well) of AlphaLISA® Anti-Analyte Accept beads (10 μg/mL final) and Biotinylated Antibody Anti-Analyte (freshly prepared, 1 nM final) was added. The mixture in the wells was mixed and then incubated at room temperature for 1 hour. Then SA-Donor beads (25 μL/well, 40 μg/mL final) were added giving a final volume of 50 μL/well. The contents of the wells were mixed and then incubated at room temperature for 0.5 hour (protect from light). The plate was read using the default Envision™ Alpha protocol (PerkinElmer). IC50 values were calculated from curve fits of the ratio data using a four-parameter logistic Hill equation (Assay Explorer 3.3 Client).
A general note: Alpha assays give light when donor and acceptor beads are brought close together.

Molecules are shown by their SMILES.

For orientation: IC50 means the point on the concentration scale where inhibition reaches its midpoint.

T1 sequence (Q92633 whole entry): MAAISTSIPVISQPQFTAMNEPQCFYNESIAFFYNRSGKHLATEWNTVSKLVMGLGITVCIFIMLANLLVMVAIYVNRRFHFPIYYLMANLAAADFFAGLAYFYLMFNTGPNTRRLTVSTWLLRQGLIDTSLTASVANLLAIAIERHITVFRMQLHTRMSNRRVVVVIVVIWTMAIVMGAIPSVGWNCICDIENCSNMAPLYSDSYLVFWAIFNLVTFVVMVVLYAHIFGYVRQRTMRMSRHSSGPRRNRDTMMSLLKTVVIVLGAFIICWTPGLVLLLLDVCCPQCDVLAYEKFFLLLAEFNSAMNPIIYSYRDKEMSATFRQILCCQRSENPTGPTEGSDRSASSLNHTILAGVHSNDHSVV

As for `COc1cc(OC)cc(C(=O)N(CCCCC(=O)O)CCCc2ccc(C)o2)c1` [Example 133, 5-{(3,5-dimethoxybenzoyl)[3-(5-methylfuran-2-yl)propyl]amino}pentanoic Acid], on LPAR1, the IC50 was found to be 46 nM and the Emax worked out at 78%. In assay [1], the IC50 came to 3190 nM and the Emax was found to be 68%.
On the same counts, the results for `COc1cc(C(=O)N(CCCCC(=O)O)CCCc2cc(F)cc(F)c2)cc(OC)c1C` [Example 126, 5-{[3-(3,5-difluorophenyl)propyl](3,5-dimethoxy-4-methylbenzoyl)amino}pentanoic Acid] are 119 nM, 74%, 3890 nM and 75%.
Taken in the same sequence, the figures for `COc1ccc(C2(C(=O)N(CCCCC(=O)O)CCCc3ccccc3)CC2)cc1Cl` [Example 107, 5-{[1-(3-chloro-4-methoxyphenyl)cyclopropane-1-carbonyl](3-phenylpropyl)amino}pentanoic Acid] were 78 nM, 85%, 3590 nM and 71%.
On the same counts, the results for `COc1ccc(C2(C(=O)N(CCCCC(=O)O)CCCc3ccccc3)CC2)c(F)c1` [Example 103, 5-{[1-(2-fluoro-4-methoxyphenyl)cyclopropane-1-carbonyl](3-phenylpropyl)amino}pentanoic Acid] are 68 nM, 75%, 5460 nM and 62%.
As to `Cc1nc2c(C(=O)N(CCCCC(=O)O)CCCc3ccccc3)cccc2c(=O)[nH]1` [Example 160, 5-[(2-methyl-4-oxo-3,4-dihydroquinazoline-8-carbonyl)(3-phenylpropyl)amino]pentanoic Acid], on LPAR1, the IC50 was determined as 8020 nM and the Emax stood at 63%.
Taken in the same sequence, the figures for `O=C(O)CCCCN(CCCc1ccccc1)C(=O)c1cccc(OC(F)(F)F)c1` [Example 26, 5-{(3-phenylpropyl)[3-(trifluoromethoxy)benzoyl]amino}pentanoic Acid] were greater than 30000 nM and 50%.
On the same counts, the results for `COc1cc(C(=O)N(CCCCC(=O)O)CCCc2cccc(C(F)(F)F)c2)cc(OC)c1C` [Example 40, 5-[(3,5-dimethoxy-4-methylbenzoyl){3-[3-(trifluoromethyl)phenyl]propyl}amino]pentanoic Acid] are 29300 nM and 45%.
Taken in the same sequence, the figures for `COc1cc(C(=O)N(CCCCC(=O)O)CCCc2ccc(Cl)cc2Cl)cc(OC)c1C` [Example 49, 5-{[3-(2,4-dichlorophenyl)propyl](3,5-dimethoxy-4-methylbenzoyl)amino}pentanoic Acid] were 24300 nM and 58%.
On to `COc1cc(C(=O)N(CCCc2ccccc2)CC(=O)N[C@@H](Cc2ccccc2)C(=O)O)cc(OC)c1C` [Example 46, N-(3,5-dimethoxy-4-methylbenzoyl)-N-(3-phenylpropyl)glycylphenylalanine], for which, on LPAR1, the IC50 is 128 nM and the Emax was determined as 66%.
`COc1ccc(C2(C(=O)N(CCCCC(=O)O)CCCc3ccccc3)CCCC2)cc1` [Example 106, 5-{[1-(4-methoxyphenyl)cyclopentane-1-carbonyl](3-phenylpropyl)amino}pentanoic Acid]: at LPAR1, the IC50 is 766 nM and the Emax came to 55%.
With `COc1cc(OC)cc(C(=O)N(CCCc2ccccc2)CCOCC(=O)O)c1` [Example 15, {2-[(3,5-dimethoxybenzoyl)(3-phenylpropyl)amino]ethoxy}acetic Acid], at LPAR1, the 50% inhibitory concentration (IC50) came out at 290 nM and the Emax is 59%.
For the compound `COc1cc(C(=O)N(CCCc2ccccc2)CCOC(C)(C)C(=O)NS(C)(=O)=O)cc(OC)c1C` [Example 156, N-[2-({1-[(methanesulfonyl)amino]-2-methyl-1-oxopropan-2-yl}oxy)ethyl]-3,5-dimethoxy-4-methyl-N-(3-phenylpropyl)benzamide], on LPAR1, the IC50 worked out at 21 nM and the Emax came out at 99%.
As for `COc1cc(C(=O)N(CCCc2ccccc2)CCCC(C)P(=O)(O)O)cc(OC)c1C` (stereo not shown) [Example 72, {5-[(3,5-dimethoxy-4-methylbenzoyl)(3-phenylpropyl)amino]pentan-2-yl}phosphonic Acid], on LPAR1, the IC50 was 26 nM and the Emax was 99%.
Taken in the same sequence, the figures for `O=C(O)CCCCN(CCCc1ccccc1)C(=O)c1ccc2c(c1)OCCCO2` [Example 23, 5-[(3,4-dihydro-2H-1,5-benzodioxepine-7-carbonyl)(3-phenylpropyl)amino]pentanoic Acid] were 12600 nM and 53%.
Taken in the same sequence, the figures for `COc1ccc([C@@H](OC)C(=O)N(CCCCC(=O)O)CCCc2ccccc2)cc1` [Example 66, 5-{[(2R)-2-methoxy-2-(4-methoxyphenyl)acetyl](3-phenylpropyl)amino}pentanoic Acid] were 312 nM and 71%.
On the same counts, the results for `COc1cc(C(=O)N(CCCCC(=O)O)CCCc2ccc(C)o2)cc(OC)c1C(F)(F)F` [Example 177, 5-{[3,5-dimethoxy-4-(trifluoromethyl)benzoyl][3-(5-methylfuran-2-yl)propyl]amino}pentanoic Acid] are 235 nM and 57%.
`COc1cc(C(=O)N(CCCCC(=O)O)CCCc2ccccc2)nc(OC)n1` [Example 163, 5-[(2,6-dimethoxypyrimidine-4-carbonyl)(3-phenylpropyl)amino]pentanoic Acid]: at LPAR1, the IC50 stood at 244 nM and the Emax was determined as 57%.
Regarding `COc1ccc(C2(C(=O)N(CCCCC(=O)O)CCCc3ccccc3)CC(OC)C2)cc1` (stereo not drawn) [Example 158, 5-{[cis-3-methoxy-1-(4-methoxyphenyl)cyclobutane-1-carbonyl](3-phenylpropyl)amino}pentanoic Acid], at LPAR1, the concentration for half-maximal inhibition (IC50) amounted to 511 nM and the “Maximum Inhibition” value amounted to 98%.
For `COc1cc(C(=O)N(CCCc2ccccc2)CCSCC(=O)O)cc(OC)c1F` [Example 100, ({2-[(4-fluoro-3,5-dimethoxybenzoyl)(3-phenylpropyl)amino]ethyl}sulfanyl)acetic Acid], on LPAR1, the half-maximal inhibitory concentration (IC50) is greater than 30000 nM and the Emax came to 60%.
On the same counts, the results for `COc1cc(C(=O)N(CCCc2ccc(F)cc2)CCSCC(=O)O)cc(OC)c1C` [Example 118, [(2-{(3,5-dimethoxy-4-methylbenzoyl)[3-(4-fluorophenyl)propyl]amino}ethyl)sulfanyl]acetic Acid] are 247 nM and 78%.
On the same counts, the results for `O=C(O)CCCCN(CCCc1ccccc1)C(=O)c1cc(Cl)cc(Cl)c1` [Example 12, 5-[(3,5-dichlorobenzoyl)(3-phenylpropyl)amino]pentanoic Acid] are 3240 nM and 55%.
As for `COc1ccc(C2(C(=O)N(CCCCC(=O)O)CCCc3ccccc3)CC(OC)C2)cc1` (stereo not drawn) [Example 159, 5-{[trans-3-methoxy-1-(4-methoxyphenyl)cyclobutane-1-carbonyl](3-phenylpropyl)amino}pentanoic Acid], on LPAR1, the IC50 turned out to be 302 nM and the “Maximum Inhibition” value came to 85%.
